From patent publication US20150274719A1, “AMINO-SUBSTITUTED IMIDAZO[1,2-A]PYRIDINECARBOXAMIDES AND THEIR USE” (BAYER PHARMA AKTIENGESELLSCHAFT, priority 2012, published 2015) come the findings set out here.

The target in the assay is T1, recombinant guanylate cyclase reporter cell line (Rattus norvegicus, UniProt P19686+P20595).
T1 construct: expressed in transfected cells; host or cells: recombinant reporter cell line
T1 sequence (P19686 1-690): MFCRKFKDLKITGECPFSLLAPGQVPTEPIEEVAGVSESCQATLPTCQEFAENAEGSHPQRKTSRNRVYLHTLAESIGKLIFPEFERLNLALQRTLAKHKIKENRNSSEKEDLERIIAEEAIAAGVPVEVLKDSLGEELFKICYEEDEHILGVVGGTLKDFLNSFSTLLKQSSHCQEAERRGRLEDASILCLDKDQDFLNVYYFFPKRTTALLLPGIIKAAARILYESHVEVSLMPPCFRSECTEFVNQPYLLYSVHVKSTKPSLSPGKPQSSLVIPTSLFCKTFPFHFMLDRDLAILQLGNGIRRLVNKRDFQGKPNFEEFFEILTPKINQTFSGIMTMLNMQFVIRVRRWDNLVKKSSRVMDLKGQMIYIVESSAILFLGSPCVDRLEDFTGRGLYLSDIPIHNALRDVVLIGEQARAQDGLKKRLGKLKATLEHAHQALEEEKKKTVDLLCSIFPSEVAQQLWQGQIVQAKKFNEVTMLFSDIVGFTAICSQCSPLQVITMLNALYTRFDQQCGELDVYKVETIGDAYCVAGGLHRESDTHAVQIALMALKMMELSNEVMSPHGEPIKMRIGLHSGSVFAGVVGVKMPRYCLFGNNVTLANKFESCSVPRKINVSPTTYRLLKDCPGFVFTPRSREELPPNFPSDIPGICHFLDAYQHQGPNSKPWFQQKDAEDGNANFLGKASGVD
T1 sequence (P20595 1-619): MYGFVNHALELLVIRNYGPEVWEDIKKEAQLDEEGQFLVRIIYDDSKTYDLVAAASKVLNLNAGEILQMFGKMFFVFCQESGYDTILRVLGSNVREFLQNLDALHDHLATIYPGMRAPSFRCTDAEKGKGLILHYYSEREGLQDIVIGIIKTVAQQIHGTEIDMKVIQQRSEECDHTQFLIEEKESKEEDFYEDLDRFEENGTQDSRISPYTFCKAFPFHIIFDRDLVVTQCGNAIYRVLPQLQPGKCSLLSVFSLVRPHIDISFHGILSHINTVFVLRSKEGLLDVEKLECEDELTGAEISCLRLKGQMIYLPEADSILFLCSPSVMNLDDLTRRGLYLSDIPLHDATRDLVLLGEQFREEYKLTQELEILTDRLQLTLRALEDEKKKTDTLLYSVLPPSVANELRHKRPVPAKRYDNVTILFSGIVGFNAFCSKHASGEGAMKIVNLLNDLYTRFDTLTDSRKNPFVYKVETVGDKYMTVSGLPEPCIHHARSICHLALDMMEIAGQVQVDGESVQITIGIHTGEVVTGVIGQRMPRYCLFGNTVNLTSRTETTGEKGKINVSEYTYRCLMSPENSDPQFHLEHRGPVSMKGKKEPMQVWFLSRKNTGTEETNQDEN
The assay is described as follows: Action on recombinant guanylate cyclase reporter cell line. It counts as cell-based. Conditions: in some cases mean values from individual determinations. The procedure, abridged: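 Reported value is the minimal effective concentration (MEC), in some cases a mean of single runs, taken from a recombinant rat guanylate cyclase reporter cell line.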

Molecules are shown by their SMILES.

`CCCC(C)(N)CNC(=O)c1c(C)nc2c(OCc3c(F)cccc3F)cc(C(F)F)cn12` (single isomer, unassigned; enantiomer b) [Example 290, ent-N-(2-amino-2-methylpentyl)-8-[(2,6-difluorobenzyl)oxy]-6-(difluoromethyl)-2-methyl-imidazo[1,2-a]pyridine-3-carboxamide (Enantiomer B)]: the “MEC (minimal effective concentration)” value worked out at 0.3 µM.

For the compound `Cc1cc(OCc2c(F)cccc2F)c2nc(C)c(C(=O)NC3CCC3N)n2c1` (single isomer, unassigned; enantiomer b) [Example 329, ent-N-(2-aminocyclobutyl)-8-[(2,6-difluorobenzyl)oxy]-2,6-dimethylimidazo[1,2-a]pyridine-3-carboxamide (Enantiomer B)], the “MEC (minimal effective concentration)” value stood at 0.30 µM.

With `Cc1cc(OCc2c(F)cccc2F)c2nc(C)c(C(=O)NC3CCC3(C)N)n2c1` (single isomer, unassigned; enantiomer b) [Example 333, ent-N-[2-amino-2-methylcyclobutyl]-8-[(2,6-difluorobenzyl)oxy]-2,6-dimethylimidazo[1,2-a]pyridine-3-carboxamide (Enantiomer B)], the “MEC (minimal effective concentration)” value worked out at 1.00 µM.

Take `Cc1cc(OCc2c(F)cccc2F)c2nc(C)c(C(=O)NC3(C)CCC3(C)N)n2c1` (single isomer, unassigned; enantiomer b) [Example 337, ent-N-[(2-amino-1,2-dimethylcyclobutyl]-8-[(2,6-difluorobenzyl)oxy]-2,6-dimethylimidazo[1,2-a]pyridine-3-carboxamide (Enantiomer B)]: the “MEC (minimal effective concentration)” value is 0.55 µM.

Regarding `Cc1cc(OCc2c(F)cccc2F)c2nc(C)c(C(=O)NCC(N)C#N)n2c1` (single isomer, unassigned; enantiomer b) [Example 402, ent-N-(2-amino-2-cyanoethyl)-8-[(2,6-difluorobenzyl)oxy]-2,6-dimethylimidazo[1,2-a]pyridine-3-carboxamide (Enantiomer B)], the “MEC (minimal effective concentration)” value is 0.30 µM.

Regarding `Cc1nc2c(OCc3c(F)cccc3F)cc(Cl)cn2c1C(=O)NC1CNCc2ccccc21` (single isomer, unassigned; ent-6) [Example 107, ent-6-chloro-8-[(2,6-difluorobenzyl)oxy]-2-methyl-N-(1,2,3,4-tetrahydroisoquinolin-4-yl)imidazo[1,2-a]pyridine-3-carboxamide], the “MEC (minimal effective concentration)” value stood at 0.30 µM.

Take `Cc1nc2c(OCc3c(F)cccc3F)cc(Cl)cn2c1C(=O)NC1CNCc2ccccc21` (single isomer, unassigned; ent-6) [Example 108, ent-6-chloro-8-[(2,6-difluorobenzyl)oxy]-2-methyl-N-(1,2,3,4-tetrahydroisoquinolin-4-yl)imidazo[1,2-a]pyridine-3-carboxamide]: the “MEC (minimal effective concentration)” value came to 1.00 µM.

Turning to `Cc1nc2c(OCc3c(F)cccc3F)cc(Cl)cn2c1C(=O)NCC1CCCCN1` (single isomer, unassigned; ent-6) [Example 190, ent-6-Chloro-8-[(2,6-difluorobenzyl)oxy]-2-methyl-N-(piperidin-2-ylmethyl)imidazo[1,2-a]-pyridine-3-carboxamide], the “MEC (minimal effective concentration)” value is 1.00 µM.

With `Cc1nc2c(OCc3c(F)cccc3F)cc(Cl)cn2c1C(=O)NCC1CCCCN1` (single isomer, unassigned; ent-6) [Example 191, ent-6-Chloro-8-[(2,6-difluorobenzyl)oxy]-2-methyl-N-(piperidin-2-ylmethyl)imidazo[1,2-a]-pyridine-3-carboxamide], the “MEC (minimal effective concentration)” value was determined as 1.00 µM.

In the case of `Cc1nc2c(OCc3c(F)cccc3F)cccn2c1C(=O)NC1CNc2ccccc21` (single isomer, unassigned; ent-8) [Example 47, ent-8-[(2,6-Difluorobenzyl)oxy]-N-(2,3-dihydro-1H-indol-3-yl)-2-methylimidazo[1,2-a]pyridine-3-carboxamide], the “MEC (minimal effective concentration)” value came to 0.30 µM.

Consider `Cc1nc2c(OCc3c(F)cccc3F)cccn2c1C(=O)NC1CCNc2ccccc21` (single isomer, unassigned; ent-8) [Example 52, ent-8-[(2,6-Difluorobenzyl)oxy]-2-methyl-N-(1,2,3,4-tetrahydroquinolin-4-yl)imidazo[1,2-a]-pyridine-3-carboxamide], for which the “MEC (minimal effective concentration)” value worked out at 0.03 µM.

Take `Cc1nc2c(OCc3c(F)cccc3F)cccn2c1C(=O)NC1CNc2ccccc2C1` (single isomer, unassigned; ent-8) [Example 81, ent-8-[(2,6-Difluorobenzyl)oxy]-2-methyl-N-(1,2,3,4-tetrahydroquinolin-3-yl)imidazo[1,2-a]-pyridine-3-carboxamide]: the “MEC (minimal effective concentration)” value worked out at 1.00 µM.

Take `Cc1nc2c(OCc3c(F)cccc3F)cccn2c1C(=O)NC1CCNc2ccc(F)cc21` (single isomer, unassigned; ent-8) [Example 105, ent-8-[(2,6-difluorobenzyl)oxy]-N-(6-fluoro-1,2,3,4-tetrahydroquinolin-4-yl)-2-methylimidazo[1,2-a]pyridine-3-carboxamide]: the “MEC (minimal effective concentration)” value turned out to be 0.30 µM.

On to `Cc1nc2c(OCc3c(F)cccc3F)cccn2c1C(=O)NC1CCNc2ccc(F)cc21` (single isomer, unassigned; ent-8) [Example 106, ent-8-[(2,6-difluorobenzyl)oxy]-N-(6-fluoro-1,2,3,4-tetrahydroquinolin-4-yl)-2-methylimidazo[1,2-a]pyridine-3-carboxamide], for which the “MEC (minimal effective concentration)” value stood at 0.03 µM.

Take `Cc1nc2c(OCc3c(F)cccc3F)cccn2c1C(=O)NC1CNCc2ccccc21` (single isomer, unassigned; ent-8) [Example 109, ent-8-[(2,6-difluorobenzyl)oxy]-2-methyl-N-(1,2,3,4-tetrahydroisoquinolin-4-yl)imidazo[1,2-a]pyridine-3-carboxamide]: the “MEC (minimal effective concentration)” value stood at 1.00 µM.

Turning to `Cc1nc2c(OCc3c(F)cccc3F)cccn2c1C(=O)NC1CNCc2ccccc21` (single isomer, unassigned; ent-8) [Example 110, ent-8-[(2,6-difluorobenzyl)oxy]-2-methyl-N-(1,2,3,4-tetrahydroisoquinolin-4-yl)imidazo[1,2-a]pyridine-3-carboxamide], the “MEC (minimal effective concentration)” value turned out to be 0.30 µM.

In the case of `Cc1nc2c(OCc3c(F)cccc3F)cccn2c1C(=O)NC1CCNc2ccc(C(F)(F)F)cc21` (single isomer, unassigned; ent-8) [Example 111, ent-8-[(2,6-difluorobenzyl)oxy]-2-methyl-N-[6-(trifluoromethyl)-1,2,3,4-tetrahydroquinolin-4-yl]imidazo[1,2-a]pyridine-3-carboxamide], the “MEC (minimal effective concentration)” value came out at 1.00 µM.

Turning to `Cc1nc2c(OCc3c(F)cccc3F)cccn2c1C(=O)NC1CCNc2ccc(C(F)(F)F)cc21` (single isomer, unassigned; ent-8) [Example 112, ent-8-[(2,6-difluorobenzyl)oxy]-2-methyl-N-[6-(trifluoromethyl)-1,2,3,4-tetrahydroquinolin-4-yl]imidazo[1,2-a]pyridine-3-carboxamide], the “MEC (minimal effective concentration)” value was 0.10 µM.

For the compound `Cc1nc2c(OCc3c(F)cccc3F)cccn2c1C(=O)NCC(C)N1CCOCC1` (single isomer, unassigned; ent-8) [Example 180, ent-8-[(2,6-Difluorobenzyl)oxy]-2-methyl-N-[2-(morpholin-4-yl)propyl]imidazo[1,2-a]pyridine-3-carboxamide], the “MEC (minimal effective concentration)” value is 1.00 µM.

With `Cc1nc2c(OCc3c(F)cccc3F)cccn2c1C(=O)NCC(C)N1CCOCC1` (single isomer, unassigned; ent-8) [Example 181, ent-8-[(2,6-Difluorobenzyl)oxy]-2-methyl-N-[2-(morpholin-4-yl)propyl]imidazo[1,2-a]pyridine-3-carboxamide], the “MEC (minimal effective concentration)” value was 1.00 µM.
